Reference: publication PMC6627609, “Targeting Quorum Sensing: High-Throughput Screening to Identify Novel LsrK Inhibitors” (International Journal of Molecular Sciences, 2019)
pIC50: −log10 of the molar value. Counter-ions that a name gives are not always drawn.

These compounds were tested against LsrK (Salmonella typhimurium, UniProt Q8ZKQ6) (assay: biochemical). Conditions: not given.
Type: biochemical, S. typhimurium

LsrK, sequence (Q8ZKQ6 whole entry): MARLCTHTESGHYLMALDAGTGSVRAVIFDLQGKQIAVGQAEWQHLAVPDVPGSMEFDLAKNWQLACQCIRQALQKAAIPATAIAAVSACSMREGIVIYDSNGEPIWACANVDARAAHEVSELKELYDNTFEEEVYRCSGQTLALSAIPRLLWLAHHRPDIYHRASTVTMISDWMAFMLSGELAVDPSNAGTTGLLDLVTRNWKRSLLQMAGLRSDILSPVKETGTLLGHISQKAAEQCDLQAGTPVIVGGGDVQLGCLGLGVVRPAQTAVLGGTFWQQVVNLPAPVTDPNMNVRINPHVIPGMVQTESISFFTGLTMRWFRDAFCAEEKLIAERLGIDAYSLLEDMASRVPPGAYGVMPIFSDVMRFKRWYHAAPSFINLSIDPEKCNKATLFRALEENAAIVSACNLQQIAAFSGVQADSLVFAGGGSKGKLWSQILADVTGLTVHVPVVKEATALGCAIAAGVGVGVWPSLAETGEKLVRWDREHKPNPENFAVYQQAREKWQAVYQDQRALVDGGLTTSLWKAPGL

Row | SMILES | inhibition at 50 µM [%] | pIC50
1 | COc1c(O)cccc1O [2-METHOXYRESORCINOL] | 0 | –
2 | CC(=O)c1cc2ccccc2oc1=O [3-ACETYLCOUMARIN] | 0 | –
3 | C=C1C(N)CC2CC1C2(C)C (stereo not drawn) [3-AMINO-beta-PINENE] | 1 | –
4 | CC(=O)O[C@H]1C[C@@H](O)C(C)(C)[C@@H]2C[C@@H](OC(C)=O)[C@]3(C)[C@H](CC[C@@]4(C)[C@@H](c5ccoc5)OC(=O)[C@H]5O[C@@]534)[C@@]12C [3-DEACETYLKHIVORIN] | 99 | –
5 | CC(=O)O[C@H]1CC[C@]2(C)C(C[C@@H](OC(C)=O)[C@]3(C)C4=CC(=O)O[C@H](c5ccoc5)[C@@]4(C)CCC23)C1(C)C (stereo partly drawn) [3-DEOXO-3beta-ACETOXYDEOXYDIHYDROGEDUNIN] | 5 | –
6 | COC(=O)C[C@H]1C(C)(C)[C@@H](O)[C@@H]2CC3=C4C=C(OC)O[C@@H](c5ccoc5)[C@]4(C)CCC3[C@@]1(C)C2=O (stereo partly drawn) [3-DEOXO-3beta-HYDROXYMEXICANOLIDE 16-ENOL ETHER] | 2 | –
7 | C=C1[C@H]2CC[C@@]3(C)[C@H](c4ccoc4)OC(=O)C[C@]13O[C@H]1C[C@H](O)C(C)(C)[C@H](CC(=O)OC)[C@]12C [3-DEOXY-3beta-HYDROXY[…] METHYL ESTER] | 1 | –
8 | COc1ccc2c(c1)OC[C@@H](Cc1ccc(OC)c(OC)c1)[C@@H]2O [3-DESHYDRO[…] ETHER] | 3 | –
9 | COc1cccc(O)c1O [3-METHOXYCATECHOL] | 118 | –
10 | Cc1cc(O)c(C)c(O)c1C(=O)O [3-METHYL[…]] | 1 | –
11 | C[C@@H]1CC[C@@]23CCC4(C)[C@@](C=CC5[C@@]6(C)CCC(=O)C(C)(C)C6CC[C@]54C)(OC2=O)C3[C@H]1C (stereo partly drawn) [3-OXOURSAN (28-13)OLIDE] | 1 | –
12 | O=C(/C=C/c1ccccc1)c1ccc(O)cc1 [4'-HYDROXYCHALCONE] | 38 | –
13 | COc1ccc(C(=O)/C=C/c2ccccc2)cc1 [4'-METHOXYCHALCONE] | 12 | –
14 | C=CC(C1=CC(=O)C(OC)=CC1=O)c1ccccc1 (stereo not drawn) [4-METHOXYDALBERGIONE] | 52 | –
15 | Cc1cc(=O)oc2c(O)c(O)ccc12 [4-METHYLDAPHNETIN] | 1 | –
16 | Cc1cc(=O)oc2cc(O)c(O)cc12 [4-METHYLESCULETIN] | 2 | –
17 | CC(C)CCC[C@@H](C)[C@H]1CC[C@H]2[C@@H]3CC(=O)[C@H]4C[C@@H](O)CC[C@]4(C)[C@H]3CC[C@]12C [5alpha-CHOLESTAN-3beta-OL-6-ONE] | 1 | –
18 | CC(=O)O[C@H]1C[C@@H](OC(C)=O)C(C)(C)[C@@H]2CC(=O)[C@]3(C)[C@H](CC[C@@]4(C)[C@H](c5ccoc5)OC(=O)[C@H]5O[C@]543)[C@@]12C [7-DEACETOXY-7-OXOKHIVORIN] | 133 | 5.52
19 | O=C(O)c1cc(O)c(=O)c2c(O)c(O)ccc2c1 [7-DESHYDROXYPYROGALLIN-4-CARBOXYLIC ACID] | 107 | 5.15

Row | SMILES | inhibition at 50 µM [%] | pIC50
20 | O=[N+]([O-])c1cccc2cn[nH]c12 [7-NITROINDAZOLE] | 1 | –
21 | CC[C@@]1(O)C(=O)OCc2c1cc1n(c2=O)Cc2cc3cc(O)ccc3nc2-1 [10-HYDROXYCAMPTOTHECIN] | 1 | –
22 | COc1ccc2c(c1)OC1(O)COc3cc(OC)c(OC)cc3C1=C2 (stereo not drawn) [12a-HYDROXY-5-DEOXYDEHYDROMUNDUSERONE] | 0 | –
23 | COc1cc2c(cc1OC)C1(O)C(=O)c3ccc(O)c(C(=O)O)c3OC1CO2 (stereo not drawn) [12a-HYDROXY-9-DEMETHYLMUNDUSERONE-8-CARBOXYLIC ACID] | 3 | –
24 | COc1ccc(-c2cc(=O)c3c(OC(C)=O)cc(OC(C)=O)cc3o2)cc1 [ACACETIN DIACETATE] | 0 | –
25 | NC(=O)c1ncn([C@@H]2O[C@H](CO)[C@@H](O)[C@H]2O)c1N [ACADESINE] | 0 | –
26 | CCCC(=O)Nc1ccc(OCC(O)CNC(C)C)c(C(C)=O)c1 (stereo not drawn) [ACEBUTOLOL HYDROCHLORIDE] | 0 | –
27 | CC(=O)Nc1ccccc1 [ACETANILIDE] | 1 | –
28 | COc1cc(C(C)=O)cc(OC)c1O [ACETOSYRINGONE] | 8 | –
29 | CC(=O)Oc1c2c(c(CC=C(C)C)c3c1C(=O)C1=C[C@@H]4CC5C(C)(C)OC(C/C=C(\C)C(=O)O)(C4=O)[C@@]15O3)OC(C)(CCC=C(C)C)C=C2 (stereo partly drawn) [ACETYL I[…]] | 141 | 5.40
30 | CC(=O)N[C@@H](CC(C)C)C(=O)O [ACETYL-L-LEUCINE] | 0 | –
31 | CC(=O)N[C@@H](Cc1c[nH]c2ccccc12)C(N)=O [ACETYLTRYPTOPHANAMIDE] | 1 | –
32 | CC(=O)N[C@@H](Cc1c[nH]c2ccccc12)C(=O)O [ACETYLTRYPTOPHAN] | 6 | –
33 | O=C(O)/C=C(\CC(=O)O)C(=O)O [ACONITIC ACID] | 1 | –
34 | CCN1C[C@]2(COC)[C@H](O)C[C@H](OC)[C@@]34[C@@H]5C[C@@]6(O)[C@H](OC(=O)c7ccccc7)[C@@H]5[C@@](OC(C)=O)([C@@H]([C@H](OC)[C@H]23)[C@@H]14)[C@@H](O)[C@@H]6OC [ACONITINE] | 1 | –
35 | Nc1nc2c(ncn2COCCO)c(=O)[nH]1 [ACYCLOVIR] | 8 | –
36 | Nc1ncnc2[nH]cnc12 [ADENINE] | 1 | –
37 | CCN(CC)CCOC(=O)C(c1ccccc1)c1ccccc1 [ADIPHENINE HYDROCHLORIDE] | 0 | –

Same assay, conditions: 50 µM

Row | SMILES | Inhibition (%)
38 | O=C1C(Cl)=C(Cl)C(=O)c2c(O)ccc(O)c21 [2.3-DICHLORO-5.8-DIHYDROXYNAPTHOQUINONE] | 30
39 | CCOc1ccc(C(=O)c2ccc(OC)c(O)c2O)cc1 [2.3-DIHYDROXY-4-METHOXY-4'-ETHOXYBENZOPHENONE] | 16
40 | O=C(O)C(S)C(S)C(=O)O (stereo not drawn) [2.3-DIMERCAPTOSUCCINIC ACID] | 88
41 | CCOc1ccc(C(=O)c2ccc(O)c(O)c2O)cc1 [2.3.4-TRIHYDROXY-4'-ETHOXYBENZOPHENONE] | 79
42 | O=[N+]([O-])c1ccc(O)c([N+](=O)[O-])c1 [2.4-DINITROPHENOL] | 4
43 | COc1cc(O)c(C)c(O)c1 [2.6-DIHYDROXY-4-METHOXYTOLUENE] | 1
44 | COC1=CC(=O)C=C(OC)C1=O [2.6-DIMETHOXYQUINONE] | 50
45 | Nc1nc[nH]n1 [3-AMINO-1.2.4-TRIAZOLE] | 1
46 | COc1ccc(-c2oc3ccccc3c(=O)c2O)cc1OC [3-HYDROXY-3'.4'-DIMETHOXYFLAVONE] | 0
47 | c1ccc2c(Cc3c[nH]c4ccccc34)c[nH]c2c1 [3.3'-DIINDOLYLMETHANE] | 0
48 | O=c1c(O)c(-c2ccccc2)oc2cc(O)ccc12 [3.7-DIHYDROXYFLAVONE] | 0
49 | CC1(C)CC2C1CCC1(C)OC2(C)CCC1O (stereo not drawn) [3.7-EPOXYCARYOPHYLLAN-6-OL] | 2
50 | CC12CCC3C(CC3(C)C)C(C)(CCC1=O)O2 (stereo not drawn) [3.7-EPOXYCARYOPHYLLAN-6-ONE] | 1
51 | COC(=O)C[C@H]1C(C)(C)[C@@H](O)[C@@H]2CC3=C4CC(O)O[C@@H](c5ccoc5)[C@]4(C)CCC3[C@@]1(C)C2=O (stereo partly drawn) [3.16-DIDEOXYMEXICANOLIDE-3beta-DIOL] | 0
52 | CC(=O)O[C@H]1CC[C@]2(C)[C@H]3CC[C@@]4(C)[C@H](c5ccoc5)OC(=O)[C@H]5O[C@]54[C@]3(C)[C@H](OC(C)=O)C[C@H]2C1(C)C [3beta-ACETOXYDEOXODIHYDROGEDUNIN] | 2
53 | C[C@@H]1CC[C@@]2(OC1)O[C@H]1C[C@H]3[C@@H]4CC[C@H]5C[C@@H](O)CC[C@]5(C)C4=CC[C@]3(C)[C@H]1[C@@H]2C [3beta-HYDROXYISOALLOSPIROST-9(11)-ENE] | 2
54 | CCCCOc1cc(CC2CNC(=O)N2)ccc1OC (stereo not drawn) [4-(3-BUTOXY-4-METHOXYBENZYL)IMIDAZOLIDIN-2-ONE] | 1
55 | COc1cc(O)c(C(C)=O)c(O)c1 [4-O-METHYLPHLORACETOPHENONE] | 2

Row | SMILES | Inhibition (%)
56 | C=CC(C1=CC(=O)C(OC)=CC1=O)c1ccc(OC)cc1 (stereo not drawn) [4.4'-DIMETHOXYDALBERGIONE] | 98
57 | O=c1c(-c2ccccc2)coc2cc(O)cc(O)c12 [5.7-DIHYDROXYISOFLAVONE] | 106
58 | COc1ccc2[nH]c3c(c2c1)CCN=C3C [6-METHOXYHARMALAN] | 2
59 | COc1ccc2oc(-c3ccccc3OC)cc(=O)c2c1 [6.2'-DIMETHOXYFLAVONE] | 1
60 | O=c1cc(-c2ccc(O)cc2)oc2ccc(O)cc12 [6.4'-DIHYDROXYFLAVONE] | 0
61 | COc1ccc(-c2cc(=O)c3cc(OC)ccc3o2)cc1 [6.4'-DIMETHOXYFLAVONE] | 2
62 | O=C(O)c1nc2cc(Cl)c(Cl)cc2nc1O [6.7-DICHLORO-3-HYDROXY-2-QUINOXALINECARBOXYLIC ACID] | 1
63 | CC(=O)OCC1=C(C(=O)O)N2C(=O)[C@@H](N)[C@H]2SC1 [7-AMINOCEPHALOSPORANIC ACID] | 64
64 | CC(=O)O[C@H]1C[C@@H](OC(C)=O)C(C)(C)C2C[C@@H](O)[C@]3(C)C(CC[C@@]4(C)[C@H](c5ccoc5)OC(=O)[C@H]5O[C@]543)[C@]21C (stereo partly drawn) [7-DEACETYLKHIVORIN] | 0
65 | CC1(C)C(=O)C=C[C@]2(C)[C@H]3CC[C@@]4(C)[C@H](c5ccoc5)OC(=O)[C@H]5O[C@]54[C@]3(C)C=C[C@@H]12 [7-DESACETOXY-6.7-DEHYDROGEDUNIN] | 33
66 | O=c1cc(-c2ccccc2O)oc2cc(O)ccc12 [7.2'-DIHYDROXYFLAVONE] | 76
67 | O=c1cc(-c2ccc(O)cc2)oc2cc(O)ccc12 [7.4'-DIHYDROXYFLAVONE] | 1
68 | COc1ccc(-c2coc3cc(OC)ccc3c2=O)cc1 [7.4'-DIMETHOXYISOFLAVONE] | 1
69 | O=c1cc(-c2ccccc2)oc2c(O)c(O)ccc12 [7.8-DIHYDROXYFLAVONE] | 5
70 | COC(=O)C[C@H]1C(C)(C)C2(O)OC34CC2C(=O)[C@]1(C)C3CC[C@]1(C)C4=CC(=O)O[C@H]1c1ccoc1 (stereo partly drawn) [8beta-HYDROXYCARAPIN. 3.8-HEMIACETAL] | 0
71 | CC(=O)O[C@@H]1C[C@]2(C)[C@@H](C(C)=O)CC[C@H]2[C@@H]2CCC3=CC(=O)CC[C@]3(C)[C@H]21 [11a-ACETOXYPROGESTERONE] | 23
72 | CC(C)c1ccc2c(c1)CCC1[C@](C)(CN)CCC[C@]21C.O=S(=O)(O)O (stereo partly drawn) [18-AMINOABIETA-8.11.13-TRIENE SULFATE] | 1
